Laboratory results taken from patent publication US4405743A, “Pyrazolylpyrimidine derivatives” (Hokko Chemical Industry Co., Ltd., priority 1981, dated 1983).
Where two headings read alike, the source gives them in different places.

Experiments:
Pyricularia oryzae [1] = type: in vivo, Pyricularia oryzae on rice plant (variety: Asahi); settings: rice blast, prevention; 200 ppm; 5 days after inoculation
Pyricularia oryzae [2] = type: in vivo, Pyricularia oryzae on rice plant (variety: Asahi); settings: rice blast, curative treatment; sprayed liquid 200 ppm; 5 days after spraying
Cochliobolus miyabeanus = assay: Effect of controlling rice brown spot, Experimental Example 3; type: in vivo, Cochliobolus miyabeanus on rice plant (variety: Asahi); settings: sprayed liquid 500 ppm, 5 days after inoculation
Sphaerotheca friliginea = assay: Effect of controlling cucumber powdery mildew, Experimental Example 4; type: in vivo; settings: sprayed liquid 200 ppm, 10 days after inoculation
Method: 10 ml of each of test liquids diluted to a predetermined concentration was sprayed over seedlings of a cucumber plant (variety: Sagami Hanpaku) grown up to the first leaf stage which has been soil cultured in an unglazed pot with a diameter of 9 cm in a green house. After allowing to stand overnight, the seedlings were sprayed for inoculation with a spore suspension of Sphaerotheca friliginea. Ten days after the inoculation, the rate of a lesion area (%) was checked and a control value was evaluated from the following equation. The degree of chemical injury against a cucumber plant was determined in the same manner as in Experimental Example.

rice plant [3] = settings: blast prevention test, 200 ppm
rice plant [4] = settings: blast curative test, 200 ppm
rice plant [5] = settings: in vivo

Structure (SMILES) | Control Value (Pyricularia oryzae [1]) | Control Value (Pyricularia oryzae [2]) | Control Value (Cochliobolus miyabeanus) | Control Value (Sphaerotheca friliginea) | Degree of chemical injury (rice plant [3]) | Degree of chemical injury (rice plant [4]) | Degree of chemical injury (rice plant [5]) | Degree of chemical injury (cucumber plant; in vivo) | Degree of chemical injury (cucumber plant; 200 ppm)
Cc1cc(C)n(-c2nccc(Oc3ccccc3)n2)n1 [Compound 3] | 100% | 98% | 100% | 94% | 0 | 0 | 0 | 0 | –
CCCc1c(C)nc(-n2nc(C)cc2C)nc1OC [Compound 40] | 100% | 100% | 81% | 97% | 0 | 0 | 0 | 0 | –
Cc1cc(Oc2ccc(I)cc2)nc(-n2nc(C)cc2C)n1 [Compound 10] | 100% | – | 60% | – | 0 | – | 0 | – | –
CCCCc1c(C)nc(-n2nc(C)cc2C)nc1Sc1ccccc1 [Compound 44] | 100% | 92% | 91% | 94% | 0 | 0 | 0 | 0 | –
Cc1cc(Oc2ccc(Cl)c(Cl)c2)nc(-n2nc(C)cc2C)n1 [Compound 24] | 92% | 84% | 89% | – | 0 | 0 | 0 | 0 | –
Cc1cc(Oc2ccccc2Cl)nc(-n2nc(C)cc2C)n1 [Compound 6] | 100% | 88% | 100% | 100% | 0 | 0 | 0 | 0 | –
Cc1cc(Oc2ccc(Cl)c(C)c2)nc(-n2nc(C)cc2C)n1 [Compound 26] | 100% | – | 100% | – | 0 | – | 0 | – | –
CCSc1nc(-n2nc(C)cc2C)ncc1C [Compound 33] | 100% | 82% | 82% | 94% | 0 | 0 | 0 | 0 | –
Cc1cc(C)n(-c2ncc(C)c(Oc3ccccc3)n2)n1 [Compound 34] | 92% | 100% | 98% | 100% | 0 | 0 | 0 | 0 | –
Cc1cc(Oc2ccccc2C)nc(-n2nc(C)cc2C)n1 [Compound 11] | 100% | 100% | 100% | 90% | 0 | 0 | 0 | 0 | –
Cc1cc(Oc2ccc([N+](=O)[O-])cc2)nc(-n2nc(C)cc2C)n1 [Compound 20] | 82% | – | 91% | 78% | 0 | – | 0 | 0 | –
CCSc1nc(-n2nc(C)cc2C)nc(C)c1C [Compound 37] | 100% | 81% | 93% | 100% | 0 | 0 | 0 | 0 | –
CCOc1nc(-n2nc(C)cc2C)nc(C)c1C [Compound 36] | 100% | 99% | 100% | 93% | 0 | 9 | 0 | 0 | –
Cc1cc(Oc2ccc(C(C)C)cc2)nc(-n2nc(C)cc2C)n1 [Compound 14] | 100% | 92% | 94% | 100% | 0 | 0 | 0 | 0 | –
Cc1cc(Oc2ccc(Br)cc2)nc(-n2nc(C)cc2C)n1 [Compound 8] | 100% | – | 61% | 78% | 0 | – | 0 | 0 | –
CCOC(=O)c1ccc(Oc2cc(C)nc(-n3nc(C)cc3C)n2)cc1 [Compound 22] | 100% | – | 100% | – | 0 | – | 0 | – | –
Cc1cc(Oc2ccc(F)cc2)nc(-n2nc(C)cc2C)n1 [Compound 9] | 100% | 100% | 100% | 100% | 0 | 0 | 0 | 0 | –
Cc1cc(SC#N)nc(-n2nc(C)cc2C)n1 [Comparative Chemical 3] | – | – | – | – | – | – | 5 | – | –
CCCCCCc1cc(Sc2ccccc2)nc(-n2nc(C)cc2C)n1 [Compound 46] | 84% | 99% | 99% | 83% | 0 | 0 | 0 | 0 | –
CSc1ccc(Oc2cc(C)nc(-n3nc(C)cc3C)n2)cc1 [Compound 18] | 100% | – | 90% | – | 0 | – | 0 | – | –
CCOc1ccnc(-n2nc(C)cc2C)n1 [Compound 1] | 100% | 100% | 99% | 90% | 0 | 0 | 0 | 0 | –
Cc1ccc(Sc2cc(C)nc(-n3nc(C)cc3C)n2)cc1 [Compound 16] | 100% | 100% | 100% | – | 0 | 0 | 0 | – | –
Cc1cc(Oc2cccc(C(F)(F)F)c2)nc(-n2nc(C)cc2C)n1 [Compound 21] | 100% | – | 77% | 86% | 0 | – | 0 | 0 | –
Cc1cc(Oc2ccc([N+](=O)[O-])c(C)c2)nc(-n2nc(C)cc2C)n1 [Compound 31] | 100% | 84% | – | 77% | 0 | 0 | – | – | 0
Cc1cc(Oc2ccc(C#N)cc2)nc(-n2nc(C)cc2C)n1 [Compound 19] | 100% | – | – | – | 0 | – | – | – | –
